Measurements reported in patent US20220348565A1, “PHARMACEUTICAL COMPOUNDS” (SENTINEL ONCOLOGY LIMITED, priority 2019, published 2022).

How the values were obtained:
[1] = target: T1, panel of ninety-seven kinases (Homo sapiens, UniProt P30530); assay: DiscoverX KinomeScreen kinase selectivity competition binding assay; conditions: AXL; read-out: % Ctrl @ 3 μM
T1 construct: purchased DiscoverX; host or cells: T7 phage in E. coli (BL21-derived) for most kinases; HEK-293 for the rest
Procedure: (§1) Atropisomer A-2 has been tested for off-target activity against a panel of ninety-seven kinases distributed across the kinome at a concentration of 3 μM using the DiscoverX KinomeScreen assay. The DiscoverX KinomeScreen assay is a site-directed competition binding assay which measures the binding affinity of a compound to a kinase, by use of a solid supported control compound which can bind or capture the kinases in solution. In the absence of a kinase-inhibitor test compound, all of the kinase will bind to the solid support. If a kinase-inhibitor test compound is added to the assay mix, the amount of kinase binding to the solid support will be reduced, the extent of reduction being dependent on the potency of the test compound as a kinase inhibitor. […] For most assays, kinase-tagged T7 phage strains were grown in parallel in 24-well blocks in an E. coli host derived from the BL21 strain. E. coli were grown to log-phase and infected with T7 phage from a frozen stock (multiplicity of infection=0.4) and incubated with shaking at 32° C. until lysis (90-150 minutes). The lysates were centrifuged (6,000×g) and filtered (0.2 μm) to remove cell debris. The remaining kinases were produced in HEK-293 cells and subsequently tagged with DNA for qPCR detection. Streptavidin-coated magnetic beads were treated with biotinylated small molecule ligands for 30 minutes at room temperature to generate affinity resins for kinase assays. The liganded beads were blocked with excess biotin and washed with blocking buffer (SeaBlock (Pierce), 1% BSA, 0.05% Tween 20, 1 mM DTT) to remove unbound ligand and to reduce non-specific phage binding. […] Test compounds were prepared as 40× stocks in 100% DMSO and directly diluted into the assay. All reactions were performed in polypropylene 384-well plates in a final volume of 0.02 ml. […] The beads were then re-suspended in elution buffer (1×PBS, 0.05% Tween 20, 0.5 μM non-biotinylated affinity ligand) and incubated at room temperature with shaking for 30 minutes. The kinase concentration in the eluates was measured by qPCR. Compounds that bind the kinase active site and directly (sterically) or indirectly (allosterically) prevent kinase binding to the immobilized ligand, will reduce the amount of kinase captured on the solid support. […] The strength of binding of the test molecule to the kinase can be expressed as the percent control (% Ctrl) The compound(s) were screened at 3000 nM concentration, and results for primary screen binding interactions are reported as ‘% Ctrl’, where lower numbers indicate stronger hits in the matrix on the following page(s). [formula] • negative control=DMSO (100% Ctrl) • positive control=control compound (0% Ctrl)

[2] = target: T2, panel of ninety-seven kinases (Homo sapiens, UniProt P50750); assay: as above; conditions: CDK9; read-out: % Ctrl @ 3 μM
T2 construct: purchased DiscoverX; host or cells: T7 phage in E. coli (BL21-derived) for most kinases; HEK-293 for the rest
T2 sequence (P50750 whole entry): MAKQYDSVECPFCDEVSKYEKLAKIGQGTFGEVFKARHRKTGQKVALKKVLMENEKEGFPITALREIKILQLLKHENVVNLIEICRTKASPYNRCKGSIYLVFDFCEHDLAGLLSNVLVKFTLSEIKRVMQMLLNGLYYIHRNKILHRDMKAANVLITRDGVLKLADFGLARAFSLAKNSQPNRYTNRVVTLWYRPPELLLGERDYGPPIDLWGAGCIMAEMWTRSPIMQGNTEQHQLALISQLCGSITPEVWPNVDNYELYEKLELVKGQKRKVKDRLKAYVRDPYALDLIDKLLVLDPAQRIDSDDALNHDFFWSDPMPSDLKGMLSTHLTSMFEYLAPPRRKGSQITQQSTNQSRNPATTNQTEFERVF
Procedure: as §1

[3] = target: T3, panel of ninety-seven kinases (Homo sapiens, UniProt P49841); assay: as above; conditions: GSK3B; read-out: % Ctrl @ 3 μM
T3 construct: purchased DiscoverX; host or cells: T7 phage in E. coli (BL21-derived) for most kinases; HEK-293 for the rest
T3 sequence (P49841 whole entry): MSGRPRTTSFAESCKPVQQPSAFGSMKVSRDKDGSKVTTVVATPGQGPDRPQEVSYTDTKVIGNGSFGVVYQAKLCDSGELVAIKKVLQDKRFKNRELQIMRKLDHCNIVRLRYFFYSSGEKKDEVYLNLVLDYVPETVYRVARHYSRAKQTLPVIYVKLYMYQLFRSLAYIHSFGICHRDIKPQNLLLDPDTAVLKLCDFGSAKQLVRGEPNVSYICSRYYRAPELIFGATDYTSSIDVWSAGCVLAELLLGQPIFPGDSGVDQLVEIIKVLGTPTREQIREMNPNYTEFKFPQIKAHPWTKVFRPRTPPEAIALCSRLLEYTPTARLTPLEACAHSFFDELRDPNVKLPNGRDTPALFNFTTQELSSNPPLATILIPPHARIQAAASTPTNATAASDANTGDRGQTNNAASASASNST
Procedure: as §1

[4] = target: T4, panel of ninety-seven kinases (Homo sapiens, UniProt Q13873); assay: as above; conditions: BMPR2; read-out: % Ctrl @ 3 μM
T4 construct: purchased DiscoverX; host or cells: T7 phage in E. coli (BL21-derived) for most kinases; HEK-293 for the rest
Procedure: as §1

[5] = target: T5, panel of ninety-seven kinases (Homo sapiens, UniProt P31751); assay: as above; conditions: AKT2; read-out: % Ctrl @ 3 μM
T5 construct: purchased DiscoverX; host or cells: T7 phage in E. coli (BL21-derived) for most kinases; HEK-293 for the rest
T5 sequence (P31751 whole entry): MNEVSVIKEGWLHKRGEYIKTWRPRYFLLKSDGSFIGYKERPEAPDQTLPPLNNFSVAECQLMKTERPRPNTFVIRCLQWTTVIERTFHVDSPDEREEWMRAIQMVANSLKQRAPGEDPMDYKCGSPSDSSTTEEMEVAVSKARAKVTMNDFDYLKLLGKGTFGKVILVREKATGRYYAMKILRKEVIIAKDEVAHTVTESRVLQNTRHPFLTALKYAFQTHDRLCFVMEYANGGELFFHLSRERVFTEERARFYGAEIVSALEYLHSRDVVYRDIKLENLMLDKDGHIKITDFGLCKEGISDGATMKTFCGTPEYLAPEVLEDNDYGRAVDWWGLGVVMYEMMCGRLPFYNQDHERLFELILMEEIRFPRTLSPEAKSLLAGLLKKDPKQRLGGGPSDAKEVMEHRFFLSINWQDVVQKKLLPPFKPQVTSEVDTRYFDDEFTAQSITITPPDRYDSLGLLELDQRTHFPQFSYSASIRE
Procedure: as §1

[6] = target: T6, panel of ninety-seven kinases (Homo sapiens, UniProt P21802); assay: as above; conditions: FGFR2; read-out: % Ctrl @ 3 μM
T6 construct: purchased DiscoverX; host or cells: T7 phage in E. coli (BL21-derived) for most kinases; HEK-293 for the rest
T6 sequence (P21802 22-821): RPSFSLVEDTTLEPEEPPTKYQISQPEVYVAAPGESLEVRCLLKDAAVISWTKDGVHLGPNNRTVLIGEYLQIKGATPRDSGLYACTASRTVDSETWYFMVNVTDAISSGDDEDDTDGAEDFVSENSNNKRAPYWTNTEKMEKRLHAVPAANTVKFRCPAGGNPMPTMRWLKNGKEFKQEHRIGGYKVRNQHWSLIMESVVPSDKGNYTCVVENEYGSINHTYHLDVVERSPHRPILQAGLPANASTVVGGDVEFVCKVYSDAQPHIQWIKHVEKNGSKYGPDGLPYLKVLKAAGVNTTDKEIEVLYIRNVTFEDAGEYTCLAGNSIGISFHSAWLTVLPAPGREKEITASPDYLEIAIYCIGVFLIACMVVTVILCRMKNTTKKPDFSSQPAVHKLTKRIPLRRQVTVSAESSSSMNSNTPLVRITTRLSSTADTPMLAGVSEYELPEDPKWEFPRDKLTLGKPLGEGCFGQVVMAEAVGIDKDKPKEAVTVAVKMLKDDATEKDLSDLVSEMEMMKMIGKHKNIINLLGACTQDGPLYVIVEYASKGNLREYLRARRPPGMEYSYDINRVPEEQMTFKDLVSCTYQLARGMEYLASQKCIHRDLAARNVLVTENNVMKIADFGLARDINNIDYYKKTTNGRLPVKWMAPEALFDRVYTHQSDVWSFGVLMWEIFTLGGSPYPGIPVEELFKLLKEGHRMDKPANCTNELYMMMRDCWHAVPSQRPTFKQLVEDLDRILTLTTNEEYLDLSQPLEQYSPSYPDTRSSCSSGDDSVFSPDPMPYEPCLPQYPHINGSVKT
Procedure: as §1

[7] = target: T7, panel of ninety-seven kinases (Homo sapiens, UniProt Q15759); assay: as above; conditions: MAPK11; read-out: % Ctrl @ 3 μM
T7 construct: purchased DiscoverX; host or cells: T7 phage in E. coli (BL21-derived) for most kinases; HEK-293 for the rest
T7 sequence (Q15759 whole entry): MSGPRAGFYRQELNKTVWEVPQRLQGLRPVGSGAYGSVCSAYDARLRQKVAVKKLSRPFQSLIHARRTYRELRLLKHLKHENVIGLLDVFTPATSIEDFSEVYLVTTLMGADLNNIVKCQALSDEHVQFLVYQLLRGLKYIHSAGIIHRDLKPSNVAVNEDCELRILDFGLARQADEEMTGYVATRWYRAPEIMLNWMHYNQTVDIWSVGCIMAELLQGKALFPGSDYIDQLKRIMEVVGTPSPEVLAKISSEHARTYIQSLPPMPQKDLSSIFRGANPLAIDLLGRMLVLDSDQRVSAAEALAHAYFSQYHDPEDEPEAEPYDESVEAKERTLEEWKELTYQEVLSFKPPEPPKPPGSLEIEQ
Procedure: as §1

[8] = target: T8, panel of ninety-seven kinases (Homo sapiens, UniProt O14965); assay: as above; conditions: AURKA; read-out: % Ctrl @ 3 μM
T8 construct: purchased DiscoverX; host or cells: T7 phage in E. coli (BL21-derived) for most kinases; HEK-293 for the rest
T8 sequence (O14965 whole entry): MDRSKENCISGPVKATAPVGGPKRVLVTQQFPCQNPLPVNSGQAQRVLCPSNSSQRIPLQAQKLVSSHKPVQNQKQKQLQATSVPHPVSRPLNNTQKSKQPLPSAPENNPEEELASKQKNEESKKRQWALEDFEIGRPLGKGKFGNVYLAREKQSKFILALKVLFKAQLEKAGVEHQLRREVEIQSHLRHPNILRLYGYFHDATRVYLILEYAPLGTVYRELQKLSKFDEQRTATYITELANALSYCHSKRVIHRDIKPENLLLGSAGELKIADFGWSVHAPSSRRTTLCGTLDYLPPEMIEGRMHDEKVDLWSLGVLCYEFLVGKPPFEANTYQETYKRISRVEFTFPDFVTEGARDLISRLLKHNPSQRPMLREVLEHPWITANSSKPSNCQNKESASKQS
Procedure: as §1

[9] = target: T9, panel of ninety-seven kinases (Homo sapiens, UniProt Q00526); assay: as above; conditions: CDK3; read-out: % Ctrl @ 3 μM
T9 construct: purchased DiscoverX; host or cells: T7 phage in E. coli (BL21-derived) for most kinases; HEK-293 for the rest
T9 sequence (Q00526 whole entry): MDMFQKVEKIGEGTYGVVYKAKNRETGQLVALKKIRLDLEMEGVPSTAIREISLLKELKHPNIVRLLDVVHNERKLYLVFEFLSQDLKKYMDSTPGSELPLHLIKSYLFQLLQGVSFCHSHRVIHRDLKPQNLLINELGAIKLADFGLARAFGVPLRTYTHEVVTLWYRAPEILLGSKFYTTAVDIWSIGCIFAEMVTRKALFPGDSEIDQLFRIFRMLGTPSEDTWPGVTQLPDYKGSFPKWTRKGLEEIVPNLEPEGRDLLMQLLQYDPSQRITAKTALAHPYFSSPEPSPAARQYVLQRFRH
Procedure: as §1

[10] = target: T10, panel of ninety-seven kinases (Homo sapiens, UniProt Q16539); assay: as above; conditions: MAPK14; read-out: % Ctrl @ 3 μM
T10 construct: purchased DiscoverX; host or cells: T7 phage in E. coli (BL21-derived) for most kinases; HEK-293 for the rest
Procedure: as §1

[11] = target: T11, panel of ninety-seven kinases (Homo sapiens, UniProt P24941); assay: as above; conditions: CDK2; read-out: % Ctrl @ 3 μM
T11 construct: purchased DiscoverX; host or cells: T7 phage in E. coli (BL21-derived) for most kinases; HEK-293 for the rest
Procedure: as §1

[12] = target: T12, panel of ninety-seven kinases (Homo sapiens, UniProt Q02750); assay: as above; conditions: MAP2K1; read-out: % Ctrl @ 3 μM
T12 construct: purchased DiscoverX; host or cells: T7 phage in E. coli (BL21-derived) for most kinases; HEK-293 for the rest
Procedure: as §1

[13] = target: T13, panel of ninety-seven kinases (Homo sapiens, UniProt P04629); assay: as above; conditions: NTRK1; read-out: % Ctrl @ 3 μM
T13 construct: purchased DiscoverX; host or cells: T7 phage in E. coli (BL21-derived) for most kinases; HEK-293 for the rest
T13 sequence (P04629 33-796): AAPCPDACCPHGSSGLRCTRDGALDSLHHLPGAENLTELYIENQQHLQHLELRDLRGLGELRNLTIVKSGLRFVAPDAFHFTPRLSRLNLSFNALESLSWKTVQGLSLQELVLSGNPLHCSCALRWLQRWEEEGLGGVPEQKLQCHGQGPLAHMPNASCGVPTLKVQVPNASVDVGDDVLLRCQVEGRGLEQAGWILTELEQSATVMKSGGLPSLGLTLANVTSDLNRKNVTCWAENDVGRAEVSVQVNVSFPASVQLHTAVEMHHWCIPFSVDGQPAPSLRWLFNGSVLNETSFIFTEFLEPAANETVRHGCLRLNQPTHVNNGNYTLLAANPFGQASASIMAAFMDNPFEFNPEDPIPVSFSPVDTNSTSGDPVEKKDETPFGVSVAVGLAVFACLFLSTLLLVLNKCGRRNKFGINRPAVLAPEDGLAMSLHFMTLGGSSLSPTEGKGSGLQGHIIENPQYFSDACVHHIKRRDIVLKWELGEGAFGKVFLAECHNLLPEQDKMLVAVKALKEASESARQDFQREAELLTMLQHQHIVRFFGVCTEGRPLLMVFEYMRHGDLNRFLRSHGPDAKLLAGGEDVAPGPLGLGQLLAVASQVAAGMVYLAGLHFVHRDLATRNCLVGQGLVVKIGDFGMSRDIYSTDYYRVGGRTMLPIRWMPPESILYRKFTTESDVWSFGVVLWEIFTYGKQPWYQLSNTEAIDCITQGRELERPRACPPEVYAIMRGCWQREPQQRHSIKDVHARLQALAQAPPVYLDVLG
Procedure: as §1

[14] = target: T14, panel of ninety-seven kinases (Homo sapiens, UniProt P49137); assay: as above; conditions: MAPKAPK2; read-out: % Ctrl @ 3 μM
T14 construct: purchased DiscoverX; host or cells: T7 phage in E. coli (BL21-derived) for most kinases; HEK-293 for the rest
Procedure: as §1

[15] = target: T15, panel of ninety-seven kinases (Homo sapiens, UniProt Q9P1W9); assay: as above; conditions: PIM2; read-out: % Ctrl @ 3 μM
T15 construct: purchased DiscoverX; host or cells: T7 phage in E. coli (BL21-derived) for most kinases; HEK-293 for the rest
Procedure: as §1

[16] = tested on: panel of ninety-seven kinases; assay: as above
Procedure: as §1

[17] = Chiral stability (interconversion) of isolated atropisomers on heating, chiral HPLC; assay type: physicochemical; conditions: for % ee of sample @ 40° C. / % ee sample @ 80° C.: EtOH solution, listed as A-2
Procedure: Stability studies were carried out on the isolated atropisomers, atropisomers A-1 and A-2. To assess the interconversion of atropisomer A-1 and atropisomer A-2 chiral stability was monitored at 40° C. and 80° C. […] 1. 2×1 mg of pure atropisomer was dissolved in 1 mL of EtOH in a sealed-dram vial. 2. One set of vials was heated at 40° C. and another set at 80° C. 3. […] 4. Analysis was carried out at the following timepoints: 0 h, 24 h, 48 h, 72 h, 96 h and 240 h for the samples kept at 40° C. and 24 h, 96 h and 240 h for the samples kept at 80° C. using Chiral HPLC method 5

T1 sequence (P30530 26-894): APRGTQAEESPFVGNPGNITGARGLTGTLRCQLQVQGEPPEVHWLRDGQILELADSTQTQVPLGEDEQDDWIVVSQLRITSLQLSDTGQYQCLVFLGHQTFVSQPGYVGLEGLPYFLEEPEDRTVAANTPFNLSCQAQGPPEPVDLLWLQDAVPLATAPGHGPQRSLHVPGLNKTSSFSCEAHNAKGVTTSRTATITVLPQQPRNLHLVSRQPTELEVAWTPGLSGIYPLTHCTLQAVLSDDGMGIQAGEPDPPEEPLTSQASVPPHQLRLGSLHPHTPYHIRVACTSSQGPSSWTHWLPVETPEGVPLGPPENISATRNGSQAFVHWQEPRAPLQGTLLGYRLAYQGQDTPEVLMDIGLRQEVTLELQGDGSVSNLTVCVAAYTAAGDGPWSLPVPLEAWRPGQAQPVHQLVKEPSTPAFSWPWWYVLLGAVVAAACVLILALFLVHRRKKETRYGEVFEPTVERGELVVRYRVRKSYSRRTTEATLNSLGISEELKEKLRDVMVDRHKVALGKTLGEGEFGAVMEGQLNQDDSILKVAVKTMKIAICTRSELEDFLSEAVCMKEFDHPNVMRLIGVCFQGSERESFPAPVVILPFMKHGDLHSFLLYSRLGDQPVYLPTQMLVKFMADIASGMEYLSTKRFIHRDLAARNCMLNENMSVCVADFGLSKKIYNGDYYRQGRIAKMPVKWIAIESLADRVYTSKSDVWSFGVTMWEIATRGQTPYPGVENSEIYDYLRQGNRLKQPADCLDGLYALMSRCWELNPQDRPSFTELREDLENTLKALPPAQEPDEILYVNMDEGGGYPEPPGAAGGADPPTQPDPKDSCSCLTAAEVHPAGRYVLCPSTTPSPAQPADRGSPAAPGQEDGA

percent of control kinase binding to immobilized ligand at 3 µM [1]: 93%
percent of control kinase binding to immobilized ligand at 3 µM [2]: 97%
percent of control kinase binding to immobilized ligand at 3 µM [3]: 88%
percent of control kinase binding to immobilized ligand at 3 µM [4]: 82%
percent of control kinase binding to immobilized ligand at 3 µM [5]: 100%
percent of control kinase binding to immobilized ligand at 3 µM [6]: 85%
percent of control kinase binding to immobilized ligand at 3 µM [7]: 99%
percent of control kinase binding to immobilized ligand at 3 µM [8]: 98%
percent of control kinase binding to immobilized ligand at 3 µM [9]: 100%
percent of control kinase binding to immobilized ligand at 3 µM [10]: 100%
percent of control kinase binding to immobilized ligand at 3 µM [11]: 94%
percent of control kinase binding to immobilized ligand at 3 µM [12]: 84%
percent of control kinase binding to immobilized ligand at 3 µM [13]: 100%
percent of control kinase binding to immobilized ligand at 3 µM [14]: 75%
percent of control kinase binding to immobilized ligand at 3 µM [15]: 100%
% Ctrl @ 3 μM ([16]; EGFR (variants not told apart)): 100%
% Ctrl @ 3 μM ([16]; KIT (three lines, variants not told apart)): 100%
binding activity against panel kinases (in words) ([16]; ninety-seven kinases, 3 μM): poor or non-existent binding activity
% ee of sample @ 40° C. ([17]; 0 h): 97.20 % ee
% ee of sample @ 40° C. ([17]; 24 h): 97.34 % ee
% ee of sample @ 40° C. ([17]; 48 h): 97.30 % ee
% ee of sample @ 40° C. ([17]; 72 h): 97.24 % ee
% ee of sample @ 40° C. ([17]; 96 h): 97.14 % ee
% ee of sample @ 40° C. ([17]; 10 days): 97.46 % ee
% ee sample @ 80° C. ([17]; 0 h): 97.20 % ee
% ee sample @ 80° C. ([17]; 24 h): 95.62 % ee
% ee sample @ 80° C. ([17]; 96 h): 96.62 % ee
% ee sample @ 80° C. ([17]; 10 days): 97.12 % ee
atropisomer classification (LaPlante) ([17]; from stability of isolated atropisomers): Class 3
interconversion / racemization of atropisomers on heating ([17]; heating for 10 days at 40° C. and 80° C.): no interconversion was observed
Compound: CN(C)CCNC(=O)c1ccc(-c2ccc(-c3ccc(Cl)cc3)n2-c2ccccc2C(F)(F)F)cc1 (single isomer, unassigned) [Atropisomer A-2, 4-[5-(4-chlorophenyl)-1-[2-(trifluoromethyl)phenyl]pyrrol-2-yl]-N-[2-(dimethylamino)ethyl]benzamide]
